Assay results published in US8889732B2, “Fused heterocyclic compounds and thrombopoietin receptor activators” (Nissan Chemical Industries, Ltd., priority 2009, dated 2014).

These compounds were tested against T1, human thrombopoietin receptor (c-mpl) (Homo sapiens, UniProt P40238) (assay: Stimulation of proliferation of thrombopoietin-dependent cell line UT7/EPO-mpl (WST-8)). Details: UT7/EPO-mpl cells.
T1 construct: expressed in transfected cells
T1 sequence (P40238 26-635): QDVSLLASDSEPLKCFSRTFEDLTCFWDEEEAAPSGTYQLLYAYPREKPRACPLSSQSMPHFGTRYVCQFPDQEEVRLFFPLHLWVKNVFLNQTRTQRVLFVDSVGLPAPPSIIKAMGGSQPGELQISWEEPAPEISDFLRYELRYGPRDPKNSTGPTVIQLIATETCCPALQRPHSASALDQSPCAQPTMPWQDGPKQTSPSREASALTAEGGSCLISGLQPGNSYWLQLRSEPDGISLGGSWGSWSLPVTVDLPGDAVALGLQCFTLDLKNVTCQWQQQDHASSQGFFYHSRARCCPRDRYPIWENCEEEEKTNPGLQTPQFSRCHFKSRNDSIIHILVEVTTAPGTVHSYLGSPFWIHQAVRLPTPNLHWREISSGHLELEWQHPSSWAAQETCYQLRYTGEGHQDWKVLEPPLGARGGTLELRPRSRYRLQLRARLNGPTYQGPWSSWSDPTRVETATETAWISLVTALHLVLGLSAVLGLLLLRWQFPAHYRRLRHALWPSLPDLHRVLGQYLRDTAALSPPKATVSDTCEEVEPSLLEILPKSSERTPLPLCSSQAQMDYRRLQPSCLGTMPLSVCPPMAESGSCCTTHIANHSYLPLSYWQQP
Assay type: cell-based
Protocol: The responses of thrombopoietin receptor to the compounds of Synthetic Examples of the present invention were assayed using a human leukemic cell line, UT7/EPO-mpl.
(§1) UT7/EPO-mpl is a stable transformed cell line obtained by introducing into human leukemic cell line UT7/EPO a vector that induces expression of human thrombopoietin receptor (c-mpl) under control of cytomegalovirus immediate-early promoter by the method of Takatoku et al. (J. Biol. Chem., 272:7259-7263 (1997)). […] These two cell lines were subcultured in IMDM (Invitrogen) containing 10% fetal bovine serum (Thermo Electron or BioWest) using a CO2 incubator (5% CO2, 37° C.).
(§2) The subcultured cells described above were washed twice with PBS and suspended in IMDM containing 10% fetal bovine serum at a cell density of 6×10^4 cells/ml. The cell suspension was transferred to a 96-well tissue culture plate (CORNING) in 100-μl aliquots. Then either thrombopoietin (Pepro Tech EC) or the compound of Synthetic Examples dissolved in dimethyl sulfoxide were diluted 83-fold with IMDM containing 10% fetal bovine serum and added to the aforementioned cell suspension in 20-μl aliquots. The cell suspension was incubated in a CO2 incubator (5% CO2, 37° C.) for 4 days. Cell proliferation was assayed using WST-8 reagent (Kishida Chemical Co., Ltd.) according to instructions by the manufacturer. A 10-μl aliquot of 5 mM WST-8 reagent solution was added to each well of the tissue culture plate, and the plate was incubated at 37° C. for 4 hours. The formazan pigment generated was detected by measuring the absorbance at 450 nm with a 96-well microplate reader (Nihon Molecular Devices, Spectramax 190).

| Compound | Proliferation of thrombopoietin-responsive UT7/EPO-mpl cells |
| --- | --- |
| TPO: thrombopoietin (Pepro Tech EC), a cytokine consisting of 332 amino acids | stimulated |

Same assay, conditions: concentration yielding growth rate corresponding to 50% of growth of UT-7/EPO-mpl in the presence of 10 ng/mL TPO; 4 days incubation, WST-8

| Compound | EC50 |
| --- | --- |
| C/C(=N\NC(=S)Nc1cccc(-c2nnn[nH]2)c1)c1csc(-c2ccc3c(c2)CCC3)c1O [compound 63] | 3.99 nM |
| C/C(=N\NC(=S)Nc1ccc(-c2nnn[nH]2)cc1)c1csc(-c2ccc3c(c2)CCC3)c1O [compound 64] | 4.42 nM |
| C/C(=N\NC(=S)Nc1cccc(-c2nnn[nH]2)c1)c1csc(-c2ccc3c(c2)CCO3)c1O [compound 65] | 5.65 nM |
| C/C(=N\NC(=S)Nc1ccc(-c2nnn[nH]2)cc1)c1csc(-c2ccc3c(c2)CCO3)c1O [compound 66] | 8.79 nM |
| C/C(=N\NC(=O)c1ccc(-c2nnn[nH]2)cc1)c1csc(-c2ccc3c(c2)CCCC3)c1O [compound 67] | 5.23 nM |
| C/C(=N\NC(=O)c1ccc(-c2nnn[nH]2)cc1)c1csc(-c2ccc3c(c2)CCC3)c1O [compound 68] | 22.5 nM |
| C/C(=N\NC(=O)c1ccc(C(=O)NCc2ccc(C(=O)NCCO)cc2)s1)c1csc(-c2ccc3c(c2)CCCC3)c1O [compound 69] | 0.357 nM |
| C/C(=N\NC(=O)c1ccc(C(=O)NCc2ccc(C(=O)NCCO)cc2)s1)c1csc(-c2ccc3c(c2)CCC3)c1O [compound 70] | 0.382 nM |
| C/C(=N\NC(=O)c1ccc(C(=O)NCc2ccc(C(=O)NCCO)cc2)s1)c1csc(-c2ccc3c(c2)CCO3)c1O [compound 71] | 3.97 nM |

These compounds were tested on UT7/EPO (assay: Proliferation of mother cell line UT7/EPO (no c-mpl)). Details: UT7/EPO cells without c-mpl.
Assay type: cell-based, human
Protocol: as §1
as §2, with “A 10-μl aliquot of 5 mM WST-8 reagent solution was added to each well of the tissue culture plate, and the plate was incubated at 37° C. for 4 hours.” left out

| Compound | Effect on proliferation of UT7/EPO, the mother cell line |
| --- | --- |
| TPO: thrombopoietin (Pepro Tech EC), a cytokine consisting of 332 amino acids | no response |
